In the assay the test system is M. catarrhalis A894. As to the kind of experiment: MIC determination by microdilution in cation-adjusted Mueller-Hinton Broth (NCCLS). The assay is classed as cell-based. As to conditions: pH of the test medium 7.2-7.3; for MIC M. catarrhalis A894: microdilution method; for MIC: Moraxella catarrhalis, A894, microdilution method. The procedure: These assays have been performed following the description given in “Methods for dilution Antimicrobial Susceptibility Tests for Bacteria that Grow Aerobically, 4th ed.; Approved standard: NCCLS Document M7-A4; National Committee for Clinical Laboratory Standards: Villanova, Pa., USA, 1997”. Minimal inhibitory concentrations (MICs; mg/l) were determined in cation-adjusted Mueller-Hinton Broth by a microdilution method following NCCLS guidelines (National Committee for Clinical Laboratory Standards. Methods for Dilution Antimicrobial Susceptibility). The pH of the test medium was 7.2-7.3. All Example compounds were tested against several Gram positive and Gram negative bacteria such as S. aureus, E. faecalis, S. pneumoniae, M. catarrhalis or E.coli.

Values after ≈ are worked out from the molar mass of the structure shown.

Take `COc1ccc2ncc3c(c2n1)C(CN1CCC[C@@H](CNCc2ccc4c(n2)NC(=O)CO4)C1)CO3` (mixture of isomers) [Example 27]: the “MIC M. catarrhalis A894” value was “≦0.031 mg/l”. Compound `COc1ccc2ncc3c(c2n1)C(CN1CC[C@H](NCc2ccc4c(n2)NC(=O)CS4)[C@H](CO)C1)CO3` (relative stereo) [Example 36, 6-{(3R*,4S*)-[3-hydroxymethyl-1-((1RS)-8-methoxy-1,2-dihydro-3-oxa-5,9-diaza-cyclopenta[a]naphthalen-1-ylmethyl)-piperidin-4-ylamino]-methyl}-4H-pyrido[3,2-b][1,4]thiazin-3-one] gave a minimal inhibitory concentration (MIC) not above 0.031 µg/mL. Same read-out and setting: in the case of `COc1ccc2ccc3c(c2n1)C(CN1CCC(NCc2ccc4c(n2)OCCO4)CC1)CO3` (racemic) [Example 11, rac-(2,3-dihydro-[1,4]dioxino[2,3-b]pyridin-6-ylmethyl)-[1-(2-methoxy-8,9-dihydro-furo[2,3-h]quinolin-9-ylmethyl)-piperidin-4-yl]-amine] it was 0.125 µg/mL (≈ 0.27 µM); in that of `COc1ccc2ccc3c(c2n1)C(CN1CCC(NCc2ccc4c(n2)NC(=O)CS4)CC1)CO3` (racemic) [Example 4, rac-6-{[1-(2-methoxy-8,9-dihydro-furo[2,3-h]quinolin-9-ylmethyl) -piperidin-4-ylamino]-methyl}-4H-pyrido[3,2-b][1,4]thiazin-3-one], not above 0.031 µg/mL; in that of `COc1ccc2ccc3c(c2n1)C(CN1CCC(NCc2cc4c(nn2)OCCO4)CC1)CO3` (racemic) [Example 3, rac-(6,7-dihydro-[1,4]dioxino[2,3-c]pyridazin-3-ylmethyl)-[1-(2-methoxy-8,9-dihydro-furo[2,3-h]quinolin-9-ylmethyl)-piperidin-4-yl]-amine], not above 0.031 µg/mL. `COc1ccc2ncc3c(c2n1)C(CN1CCC(NCc2ccc4c(n2)NC(=O)CS4)CC1)CO3` (racemic) [Example 7, rac-6-{[1-(8-methoxy-1,2-dihydro-3-oxa-5,9-diaza-cyclopenta[a]naphthalen-1-ylmethyl)-piperidin-4-ylamino]-methyl}-4H-pyrido[3,2-b][1,4]thiazin-3-one]: the MIC was not above 0.031 µg/mL. As for `COc1ccc2ncc3c(c2n1)[C@H](CN1CCC(NCc2ccc4c(n2)NC(=O)CS4)CC1)CO3` (single isomer, unassigned) [Example 16A], the MIC was not above 0.031 µg/mL. For `COc1ccc2ncc3c(c2n1)C(CN1C2CCC1CC(NC/C=C/c1cc(F)ccc1F)C2)CO3` (racemic) [Example 21, [(E)-3-(2,5-difluoro-phenyl)-allyl]-[(3-exo)-8-((1RS)-8-methoxy-1,2-dihydro-3-oxa-5,9-diaza-cyclopenta[a]naphthalen-1-ylmethyl)-8-aza-bicyclo[3.2.1]oct-3-yl]-amine], the “MIC M. catarrhalis A894” value is “≦0.031 mg/l”. Still for that read-out and setting: the result for `COc1ccc2ncc3c(c2n1)C(CN1CCC[C@@H](CNCc2cc4c(cn2)OCCO4)C1)CO3` (mixture of isomers) [Example 29] reads “≦0.031 mg/l”; that for `COc1ccc2ncc3c(c2n1)C(CN1CC2C(C1)C2NCc1ccc2c(n1)NC(=O)CS2)CO3` (racemic) [Example 34, 6-{[(1α,5α,6α)-3-((1RS)-8-methoxy-1,2-dihydro-3-oxa-5,9-diaza-cyclopenta[a]naphthalen-1-ylmethyl)-3-aza-bicyclo[3.1.0]hex-6-ylamino]-methyl}-4H-pyrido[3,2-b][1,4]thiazin-3-one], “≦0.031 mg/l”. Turning to `COc1ccc2ncc3c(c2n1)C(CN1[C@@H]2CC[C@H]1C[C@H](NCc1ccc4c(n1)NC(=O)CS4)C2)CO3` (mixture of isomers) [Example 23, 6-{[(3-exo)-8-((1RS)-8-methoxy-1,2-dihydro-3-oxa-5,9-diaza-cyclopenta[a]naphthalen-1-ylmethyl)-8-aza-bicyclo[3.2.1]oct-3-ylamino]-methyl}-4H-pyrido[3,2-b][1,4]thiazin-3-one], the “MIC M. catarrhalis A894” value is reported as “≦0.031 mg/l”. On to `COc1ccc2ncc3c(c2n1)C(CN1[C@@H]2CC[C@H]1C[C@H](NCc1cc4c(cn1)OCCO4)C2)CO3` (mixture of isomers) [Example 20, (2,3-dihydro-[1,4]dioxino[2,3-c]pyridin-7-ylmethyl) -[(3-exo)-8-((1RS)-8-methoxy-1,2-dihydro-3-oxa-5,9-diaza-cyclopenta[a]naphthalen-1-ylmethyl)-8-aza-bicyclo[3.2.1]oct-3-yl]-amine], for which the “MIC M. catarrhalis A894” value is given as “≦0.031 mg/l”. As for `COc1ccc2ccc3c(c2n1)C(CN1CCC(NC/C=C/c2cc(F)ccc2F)CC1)CO3` (racemic) [Example 1, rac-[(E)-3-(2,5-difluoro-phenyl)-allyl]-[1-(2-methoxy-8,9-dihydro-furo[2,3-h]quinolin-9-ylmethyl)-piperidin-4-yl]-amine], the minimum inhibitory concentration (MIC) was not above 0.031 µg/mL.

`COc1ccc2ncc3c(c2n1)C(CN1CC[C@H](NCc2cc4c(nn2)OCCO4)[C@H](CO)C1)CO3` (relative stereo) [Example 38, (3R*,4S*)-[4-[(6,7-dihydro-[1,4]dioxino[2,3-c]pyridazin-3-ylmethyl)-amino]-1-((1RS)-8-methoxy-1,2-dihydro-3-oxa-5,9-diaza-cyclopenta[a]naphthalen-1-ylmethyl)-piperidin-3-yl]-methanol] yielded an MIC of 0.063 µg/mL (≈ 0.127 µM).

With `COc1ccc2ncc3c(c2n1)C(CN1CC[C@@H](NCc2ccc4c(n2)NC(=O)CO4)[C@@H](F)C1)CO3` (relative stereo) [Example 18, 6-{[(3S*,4R*)-3-fluoro-1-((1RS)-8-methoxy-1,2-dihydro-3-oxa-5,9-diaza-cyclopenta[a]naphthalen-1-ylmethyl)-piperidin-4-ylamino]-methyl}-4H-pyrido[3,2-b][1,4]oxazin-3-one], the MIC was not above 0.031 µg/mL. Compound `COc1ccc2ncc3c(c2n1)C(CN1CC[C@@H](NCc2ccc4c(n2)NC(=O)CS4)[C@@H](F)C1)CO3` (relative stereo) [Example 17, 6-{[(3S*,4R*)-3-fluoro-1-((1RS)-8-methoxy-1,2-dihydro-3-oxa-5,9-diaza-cyclopenta[a]naphthalen-1-ylmethyl)-piperidin-4-ylamino]-methyl}-4H-pyrido[3,2-b][1,4]thiazin-3-one] displayed an MIC not above 0.031 µg/mL.

On to `COc1ccc2ncc3c(c2n1)C(CN1C2CCC1CC(NCc1ccc4c(n1)NC(=O)CO4)C2)CO3` (racemic) [Example 22, 6-{[(3-exo)-8-((1RS)-8-methoxy-1,2-dihydro-3-oxa-5,9-diaza-cyclopenta[a]naphthalen-1-ylmethyl)-8-aza-bicyclo[3.2.1]oct-3-ylamino]-methyl}-4H-pyrido[3,2-b][1,4]oxazin-3-one], for which the “MIC M. catarrhalis A894” value is recorded as “≦0.031 mg/l”. As to `COc1ccc2ncc3c(c2n1)C(CN1CCC(NCc2ccc4c(c2)OCCO4)CC1)CO3` (racemic) [Example 10, rac-(2,3-dihydro-benzo[1,4]dioxin-6-ylmethyl)-[1-(8-methoxy-1,2-dihydro-3-oxa-5,9-diaza-cyclopenta[a]naphthalen-1-ylmethyl)-piperidin-4-yl]-amine], the MIC was not above 0.031 µg/mL. The compound `COc1ccc2ncc3c(c2n1)[C@@H](CN1CCC(NCc2cc4c(cn2)OCCO4)C(CO)C1)CO3` (stereo partly drawn) [Example 40, [4-[(2,3-dihydro-[1,4]dioxino[2,3-c]pyridin-7-ylmethyl)-amino]-1-((S)-8-methoxy-1,2-dihydro-3-oxa-5,9-diaza-cyclopenta[a]naphthalen-1-ylmethyl)-piperidin-3-yl]-methanol] had an MIC not above 0.031 µg/mL.

The record behind these values is patent publication US8012961B2, “Tricyclic antibiotics” (Actelion Pharmaceutical Ltd., priority 2008, dated 2011).
